Common to all, as to test: microbe, parasite or virus in culture
Common to all, as to conditions: Mycobacterium tuberculosis, read-out: minimum inhibitory concentration (MIC)

One assay has as its system MT103 (wild type). Format: cell-based, M. tuberculosis.
In assay [1] the test system is M. tuberculosis strains H37Rv. Format: cell-based.
A further assay relates to SO2 strain. Format: cell-based, M. tuberculosis.

Each structure is given as a SMILES string. In brackets after ≈: the same amount, converted by molar mass.

As for `CC[C@@H](CO)NCCN[C@@H](CC)CO` [Ethambutol], the MIC (in the assay with MT103 (wild type); in assay [1]; in the assay with SO2 strain) was 2 µg/mL (≈ 9.79 µM) in each case.
For the compound `NNC(=O)c1ccncc1` [Isoniazid], the MIC was found to be 0.5 µg/mL (≈ 3.65 µM) in the assay with MT103 (wild type), 0.5 µg/mL (≈ 3.65 µM) in assay [1] and 0.25 µg/mL (≈ 1.82 µM) in the assay on SO2 strain.
As for `CO[C@H]1/C=C/O[C@@]2(C)Oc3c(C)c(O)c4c(O)c(c(/C=N/N5CCN(C)CC5)c(O)c4c3C2=O)NC(=O)/C(C)=C\C=C\[C@H](C)[C@H](O)[C@@H](C)[C@@H](O)[C@@H](C)[C@H](OC(C)=O)[C@@H]1C` [Rifampicin], the MIC (in the assay with MT103 (wild type); in assay [1]; with SO2 strain) was under 0.004 µg/mL throughout.
In the case of `[H]/N=C(/N)N[C@H]1[C@H](O)[C@@H](O)[C@H](O[C@@H]2O[C@@H](C)[C@](O)(C=O)[C@H]2O[C@@H]2O[C@@H](CO)[C@H](O)[C@@H](O)[C@@H]2NC)[C@@H](N/C(N)=N\[H])[C@@H]1O` [Streptomycin], the MIC (in the assay on MT103 (wild type); in assay [1]; with SO2 strain) was under 0.5 µg/mL throughout.

Source of the values: patent US8642011B2 (priority 2006, dated 2014).
